Test results: US4929736A, “Latent isocynate derivatives useful for deactivating enzymes” (Board of Trustees of the Wichita State University, priority 1986, dated 1990)
“Also recorded” adds a separate entry of the source. Read-outs that look alike come from different tables or passages of the source.

Key:
[1] = molecular target: Porcine pancreatic elastase (PPE) (Sus scrofa, UniProt P00772); assay: Spectrophotometric assay of PPE inactivation (in vitro); type: biochemical; conditions: for kinact/KI: Table I azolides, read-out: Porcine pancreatic elastase k3 /Ki
Method: The enzyme assays used to evaluate the potency of the inhibitors in vitro were performed as follows: PPE was assayed spectrophotometrically at 347.5 nm with (tert-butoxycarbonyl)-alanyl-p-nitrophenol in 0.05 M phosphate buffer, pH 6.5, 25° C., or by using succinyl-L-trialanyl-p-nitroanilide in 0.1 M Tris buffer, pH 8.0, at 410 nm. HLE was assayed spectrophotometrically at 410 nm with succinyl-L-trialanyl-p-nitroanilide or methoxy succinyl ala-ala-pro-val-p-nitroanilide (As describe by K. Wakajima et al in the J. Biol. Chem, 254, 4027-4032 (1979) and T. Teshima et al, in J. Biol. Chem 257, 5085-5091 (1982). The potency of an inhibitor is determined by obtaining a kinetic determination of the bimolecular rate constant K3 /Ki (or Robsd /[I]). The HLE used in these studies may be obtained from Elastin Products, St. Louis, Mo.) in 0.1 M Tris buffer, pH 8.0.
The appropriate amount of inhibitor in acetonitrile was mixed with PPE in phosphate buffer solution and placed in a constant temperature bath. Aliquots were withdrawn at different time intervals and transferred to a cuvette containing 100 uL of substrate, 140 uL of acetonitrile, and 2 mL of phosphate buffer, pH 6.5. After incubating for 30 seconds, the absorbance change was monitored for two minutes at 347.5 nm. The inhibitor-to-enzyme ratios varied between 50 and 200, and the incubation intervals were shortened or lengthened depending upon the potency of the inhibitor. Controlled reactions for 100% PPE activity were run in the presence of acetonitrile. A similar procedure was followed for HLE.
The reaction of an irreversible inhibitor with PPE and HLE may be illustrated by the scheme shown below: [drawing 5] where EI is the noncovalently bound enzyme-inactivator complex and E-I is the final product with the inhibitor covalently bound to the enzyme. The kinetics data were analyzed according to known procedures. The apparent pseudo-first-order inactivation rate constants were determined from the slopes of semilogarithmic plots of enzymatic activity remaining versus time using the following equation: [formula] where Et /EO is the amount of active enzyme remaining after time "t". Inhibition is generally expressed in terms of k3 /Ki, M^-1 s^-1, wherein Ki is the disassociation constant for the enzyme inhibitor complex and k3 is a limiting rate constant for the irreversible loss of enzymatic activity.
Table I below illustrates the inhibition found with assays of nine amino-acid-derived azolides against PPE and HLE.

[2] = molecular target: T1, Human leukocyte elastase (HLE) (Homo sapiens, UniProt P08246); assay: Spectrophotometric assay of HLE inactivation (in vitro); type: biochemical
T1 construct: purchased Elastin Products, St. Louis, Mo
T1 sequence (P08246 30-267): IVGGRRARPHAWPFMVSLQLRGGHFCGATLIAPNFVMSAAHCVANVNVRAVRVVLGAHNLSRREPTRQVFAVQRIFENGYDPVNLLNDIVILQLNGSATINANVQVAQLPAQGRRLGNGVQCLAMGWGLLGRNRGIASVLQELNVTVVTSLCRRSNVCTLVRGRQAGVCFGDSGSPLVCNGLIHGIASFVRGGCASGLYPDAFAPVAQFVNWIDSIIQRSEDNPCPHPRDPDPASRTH
Method: The appropriate amount of inhibitor in acetonitrile was mixed with PPE in phosphate buffer solution and placed in a constant temperature bath. Aliquots were withdrawn at different time intervals and transferred to a cuvette containing 100 uL of substrate, 140 uL of acetonitrile, and 2 mL of phosphate buffer, pH 6.5. After incubating for 30 seconds, the absorbance change was monitored for two minutes at 347.5 nm. […] Controlled reactions for 100% PPE activity were run in the presence of acetonitrile. A similar procedure was followed for HLE.
The reaction of an irreversible inhibitor with PPE and HLE may be illustrated by the scheme shown below: [drawing 5] where EI is the noncovalently bound enzyme-inactivator complex and E-I is the final product with the inhibitor covalently bound to the enzyme. The kinetics data were analyzed according to known procedures. The apparent pseudo-first-order inactivation rate constants were determined from the slopes of semilogarithmic plots of enzymatic activity remaining versus time using the following equation: [formula] where Et /EO is the amount of active enzyme remaining after time "t".
The assay procedure used was the procedure identified relative to the tests above in Table I.
(kobsd) were determined by plotting in [E]t /[E]o vs time.

PPE = conditions: cited from earlier work; for Irreversible inhibition of PPE (in words): 183rd ACS National Meeting, 1982
[3] = Inactivation of S-ethylcysteine sulfonate salt by oxidants / hydrolysis in buffer; type: physicochemical
Source text: In addition, compound 3, Table VI, was exposed to oxidants in vitro and the rates of its inactivation with chloramine-T and H2 O2 compared to buffer alone are summarized in Table VII below. […] The observed rates of inhibitor inactivation are 6 to 12 fold smaller than the rate at which the inhibitor inactivates the enzyme.

alpha-Chymotrypsin = alpha-Chymotrypsin (Bos taurus, UniProt P00766); assay: Inactivation of chymotrypsin; type: biochemical; conditions: for Inhibition of chymotrypsin (in words): comparable conditions
[4] = Table I azolides, read-out: Human leukocyte elastase k3 /Ki

Sequence of Porcine pancreatic elastase (PPE) (P00772 27-266): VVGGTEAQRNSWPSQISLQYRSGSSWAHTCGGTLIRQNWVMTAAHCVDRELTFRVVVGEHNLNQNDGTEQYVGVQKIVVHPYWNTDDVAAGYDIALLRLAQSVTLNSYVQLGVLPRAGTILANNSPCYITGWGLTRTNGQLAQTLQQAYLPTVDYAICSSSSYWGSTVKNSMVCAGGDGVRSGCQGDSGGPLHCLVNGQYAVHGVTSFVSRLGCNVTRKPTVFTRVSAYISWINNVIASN

SMILES: COC(=O)[C@@H](NC(=O)n1ccnc1)C(C)C [Compound 3, Table I]
- kinact/KI [1]: 2.8 M⁻¹ s⁻¹
- kinact/KI [2, 4]: 193 M⁻¹ s⁻¹
- Inhibition of HLE (in words) ([2]; listed as L-valine azolide): highly effective
- Irreversible inhibition of PPE (in words) (PPE): Particularly active

SMILES: CCSC[C@H](NC(=O)S(=O)(=O)O)C(=O)OC [Compound 3, Table VI]
- kinact/KI ([2]; Table VI, sulfur-containing amino acid esters, read-out: kobsd /[I], inhibition of HLE): 1800 M⁻¹ s⁻¹
- kobsd, inactivation of inhibitor ([3]; Chloramine T (0.06 mM), first line): 6.6 × 10^-4 sec ^-1
- kobsd, inactivation of inhibitor ([3]; Chloramine T (0.06 mM), second line): 3.2 × 10^-3 sec ^-1
- kobsd, inactivation of inhibitor ([3]; H2O2 (1 mM)): 1.2 × 10^-3 sec ^-1
- kobsd, inactivation of inhibitor ([3]; Triss buffer, pH 8.0 (0.2 M)): 5.8 × 10^-4 sec ^-1
- half life of hydrolysis in buffer solution ([3]; buffer, pH 8.0): twenty
- scavenging of oxidants (in words) ([3]; chloramine-T and H2O2): scavenged by the inhibitor in a time dependent and efficient fashion
- half life with addition of oxidants (in words) ([3]; chloramine-T, H2O2): shorter half lives

SMILES: CCOC(=O)CNC(=O)n1ccnc1 [glycine ethel ester derivative]
- Irreversible inhibition of PPE (in words) (PPE): inactive

SMILES: CCCCC(NC(=O)n1ccnc1)C(=O)OC (stereo not shown) [Compound 9]
- Inhibition of PPE (in words) [1]: little for PPE
- Inhibition of HLE (in words) [2]: effective inhibitors; also recorded: avidity for HLE

SMILES: COC(=O)[C@H](NC(=O)n1ccnc1)C(C)C [Compound 4, Table I]
- Irreversible inhibition of PPE (in words) (PPE): marginal activity

SMILES: COC(=O)[C@H](CC(C)C)NC(=O)n1ccnc1 [Compound 7, Table I]
- kinact/KI [1]: 0.5 M⁻¹ s⁻¹
- Inhibition of HLE (in words) [2]: highly effective

SMILES: CCCCNC(=O)n1ccnc1 [n-butyl derivative]
- Inhibition of PPE (in words) (PPE; Biochem. Biophys. Res. Commun. report (1980)): particularly capable of binding to the active site of the enzyme

SMILES: COC(=O)[C@H](NC(=O)n1ccnc1)C(C)C [Compound 4]
- Inhibition of PPE (in words) [1]: no effect
- Inhibition of HLE (in words) [2]: no effect

SMILES: COC(=O)[C@@H](NC(=O)n1ccnc1)C(C)C [Compound 3]
- Inhibition of PPE (in words) [1]: poor inhibitor; also recorded: little for PPE
- Inhibition of HLE (in words) [2]: excellent inhibitor; also recorded: avidity for HLE

SMILES: CCCCC(NC(=O)n1ccnc1)C(=O)OC (racemic) [Compound 9, Table I]
- kinact/KI [1]: 2.2 M⁻¹ s⁻¹
- kinact/KI [2, 4]: 167 M⁻¹ s⁻¹

SMILES: COC(=O)[C@H](CCSC)NC(=O)n1ccnc1 [N-(1H-imidazol-1-ylcarbonyl)-methionine methyl ester]
- Inhibition of PPE (in words) [1]: unaffected
- Inhibition of HLE (in words) [2]: remarkable specificity and high potency
- Inhibition of HLE (in words) ([2]; listed as methionine azolide): highly effective

SMILES: COC(=O)CNC(=O)n1ccnc1 [Compound 1]
- Inhibition of PPE (in words) [1]: failed to deactivate
- Inhibition of HLE (in words) [2]: failed to deactivate

SMILES: CCC(C)[C@H](NC(=O)n1ccnc1)C(=O)OC (stereo partly shown) [Compound 8, Table I]
- kinact/KI [1]: 1 M⁻¹ s⁻¹

SMILES: CCC[C@H](NC(=O)S(=O)(=O)O)C(=O)OC [Compound 4, Table II]
- Inhibition of PPE (in words) [1]: no effect
- kinact/KI ([2]; Table II monopotassium sulfonate salts, read-out: k2 /Ki (HLE)): 860 M⁻¹ s⁻¹
- Inhibition of HLE (in words) ([2]; listed as L-norvaline sulfonate salt): very potent inhibitors; also recorded: effective inhibitors
- Inhibition of chymotrypsin (in words) (alpha-Chymotrypsin): no effect

SMILES: CCCC(NC(=O)n1ccnc1)C(=O)OC (racemic) [DL-norvaline methyl ester derivative]
- Irreversible inhibition of PPE (in words) (PPE): Particularly active

SMILES: COC(=O)[C@H](C)NC(=O)n1ccnc1 [Compound 2]
- Inhibition of PPE (in words) [1]: marginal inhibitory activity
- Inhibition of HLE (in words) [2]: marginal inhibitory activity

SMILES: CCC[C@H](NC(=O)n1ccnc1)C(=O)OC [Compound 5]
- Inhibition of PPE (in words) [1]: little for PPE
- kinact/KI [1]: 6.3 M⁻¹ s⁻¹
- Inhibition of HLE (in words) [2]: effective inhibitors; also recorded: avidity for HLE
- kinact/KI [2, 4]: 500 M⁻¹ s⁻¹

SMILES: CS(=O)(=O)ON1C(=O)CC(Cc2ccccc2)C1=O (racemic) [BENZYL, OSO2 CH3, (dl)-3-Benzyl-N-(methanesulfonyloxy) succinimide]
- Inhibition of PPE (in words) [1]: unaffected
- kinact/KI ([2]; Table V, succinimide derivatives, read-out: kobsd /[I], inhibition of leukocyte elastase): 1170 M⁻¹ s⁻¹
- kinact/KI (alpha-Chymotrypsin; Table V footnote a, read-out: kobsd /[I], alpha-Chymotrypsin): 9000 M⁻¹ s⁻¹
- Inhibition of chymotrypsin (in words) (alpha-Chymotrypsin): efficiently inactivated
